A short description of the assay: Calcein dye leakage assay. The class given is biochemical. The settings on record: pure DTT 30 mM without CPNT. As for the experimental part:
This was tested by studying the interaction of our CPNT with synthetic liposomes. A mixture of phosphatidylethanolamine and phosphatidylglycerol was used to simulate the cytosolic membrane of E. coli.[35] Vesicles were loaded with self-quenching concentrations of a fluorescent dye (calcein). This allows to detect disruption of the bilayer, as dye release from the liposomes and the resulting dilution leads to an increase in fluorescence (Scheme S4 ^†).
The fit (Figure S25) was performed with R, Rg, N agg, l and N as adjustable parameter.
Table S2. Fitting parameters for 24 using a form factor of a micelle with a spherical core […]
Rg, corona b 16.6 Å parameters
Vcore (single unit) c 300 Å3 […]
Background subtracted 5 × 10 -2 cm-1 a The radius of the core was calculated from the volume of the whole core given by the volume of the core of a single unit multiplied with the number of aggregation (N agg); b Radius of gyration (R g) of a single chain in the corona; c The Volume of a single cyclic peptide in the core or polymer corona (PEtOx) was estimated from the Mn, divided by the Avogadro constant and assuming a density of 1 g/cm 3, d The scattering lengths density (SLD) of the materials was calculated using the calculator given in SASfit; […]
Formation of vesicles. […]

Take `O[C@@H](CS)[C@@H](O)CS` (racemic) [DTT, 1,4-dithiothreitol]: the “Effect of DTT alone on fluorescence intensity (calcein release)” value was “no effect on the fluorescence intensity”.

The values above are taken from article PMC6544120, “Stimuli-responsive membrane activity of cyclic-peptide–polymer conjugates” (Chemical Science, 2019).
